# Earlier results in patent US5639785A, “Methods for the treatment of baldness and gray hair using isoflavonoid derivatives” (priority 1995, dated 1997).
# Like-named read-outs stand apart in the source and are kept apart here.
# Key:
# [1] = system: LNCaP human prostate cancer cell line
# [2] = system: Du-145 human prostate cancer cell line
# patients with hair loss = conditions: after four months of treatment
# [3] = system: alcohol dehydrogenase (ADH) class I isozymes
# [4] = molecular target: r1 r1 ADH isozyme (alcohol dehydrogenase class I) (Homo sapiens, UniProt P00326); conditions: competitive with respect to ethanol, uncompetitive with respect to NAD
# Chain of r1 r1 ADH isozyme (alcohol dehydrogenase class I) (P00326 2-375 limits assumed): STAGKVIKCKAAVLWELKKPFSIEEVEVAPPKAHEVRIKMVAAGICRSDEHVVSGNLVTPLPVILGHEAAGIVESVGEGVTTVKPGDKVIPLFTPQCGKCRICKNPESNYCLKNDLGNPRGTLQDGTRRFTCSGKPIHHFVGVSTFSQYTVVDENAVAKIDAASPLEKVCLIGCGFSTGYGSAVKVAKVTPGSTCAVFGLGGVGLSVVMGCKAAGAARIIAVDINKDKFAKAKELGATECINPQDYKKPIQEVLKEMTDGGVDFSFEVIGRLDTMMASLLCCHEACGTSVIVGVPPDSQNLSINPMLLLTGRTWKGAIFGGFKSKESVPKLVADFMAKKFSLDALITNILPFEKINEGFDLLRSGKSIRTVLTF
# [5] = molecular target: r2 r2 ADH isozyme (alcohol dehydrogenase class I) (Homo sapiens, UniProt P00326, I350V/R272Q); conditions: competitive with respect to ethanol, uncompetitive with respect to NAD
# Chain of r2 r2 ADH isozyme (alcohol dehydrogenase class I) (P00326 2-375 R272Q/I350V limits assumed): as the sequence (P00326 2-375 limits assumed) above, with R271Q, I349V counted along it
# [6] = system: HL60 human leukemia cells
# [7] = molecular target: T1, aldehyde dehydrogenase (ALDH) II and II of human mitochondria (Homo sapiens, UniProt P05091)
# T1 sequence (P05091 18-517): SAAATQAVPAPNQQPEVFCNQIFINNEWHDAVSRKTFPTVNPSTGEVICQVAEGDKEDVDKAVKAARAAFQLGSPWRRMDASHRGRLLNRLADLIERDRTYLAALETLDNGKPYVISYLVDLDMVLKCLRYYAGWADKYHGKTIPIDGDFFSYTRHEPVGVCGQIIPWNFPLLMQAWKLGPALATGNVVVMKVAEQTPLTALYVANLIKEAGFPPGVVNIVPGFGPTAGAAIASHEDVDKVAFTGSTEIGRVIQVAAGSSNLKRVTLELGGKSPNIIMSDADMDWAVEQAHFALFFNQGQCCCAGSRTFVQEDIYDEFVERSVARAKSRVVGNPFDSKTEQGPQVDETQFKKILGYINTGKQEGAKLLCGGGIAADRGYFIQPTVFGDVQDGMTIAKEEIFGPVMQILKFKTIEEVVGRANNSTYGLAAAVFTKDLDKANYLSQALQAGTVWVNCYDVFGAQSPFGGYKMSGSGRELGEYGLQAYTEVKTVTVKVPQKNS
SMILES,inhibition of serum and epidermal growth factor-stimulated growth [1],inhibition of serum and epidermal growth factor-stimulated growth [2],inhibition of ADH [3],free choice ethanol intake (Syrian Golden hamsters; Syrian Golden hamsters),also measured
COc1ccc(-c2coc3cc(O)cc(O)c3c2=O)cc1 [biochanin A],inhibited,inhibited,,,
Nc1cc(N2CCCCC2)nc(N)[n+]1[O-] [Minoxidil],,,,,patients who achieve minimal regrowth of hair (patients with hair loss): approximately 25%
O=c1c(-c2ccc(O)cc2)coc2cc(O)cc(O)c12 [genistein],inhibited,inhibited,reversible inhibitors,,
"O=c1c(-c2ccc(O)cc2)coc2cc(O)ccc12 [daidzein, 7-hydroxy-3-(4-hydroxyphenyl)-4-H-1-benzopyranyl-4-one]",not,not,reversible inhibitors,suppressed,"Ki [4]: ~1000 nM; Ki [5]: ~1000 nM; concentration that inhibited the growth of HL60 cells [6]: greater than 10 μg/ml; effect on body weight, water or food intake (Syrian Golden hamsters; hamster, in vivo): did not significantly affect"
O=c1c(-c2ccc(O)cc2)coc2cc(O[C@@H]3O[C@H](CO)[C@@H](O)[C@H](O)[C@H]3O)ccc12 [daidzin],,,did not inhibit,suppressed,"inhibition of ALDH [7]: potent inhibitor; effect on body weight, water or food intake (Syrian Golden hamsters; Syrian Golden hamsters): did not significantly affect"
